Entries after “also recorded” stand apart in the source; their conditions may differ. Like-named read-outs stand apart in the source and are kept apart here. Blank lines part the entries; values can stand above or below the molecule they belong to.
Key:
[1] = Π-A and pressure/time measurements of meibomian lipid films mixed with compounds of formula (I) (Example 5, FIG. 2); type: physicochemical, human
Description: (§1) The physico-chemical properties of certain wax esters, meibomian lipids, and compounds of formula (I) alone or mixed with human meibum were characterized on a Langmuir-Blodgett minitrough by means of surface pressure-area (Π-A) measurements.
(§2) A buffer (NaCl: 6.63 g/L, KCl: 1.72 g/L, NaHCO3: 1.38 g/L, CaCl2.2H2O: 0.15 g/L, NaH2PO4.H2O: 0.10 g/L and MOPS: 4.18 g/L dissolved in MilliQ water) was added to a double barrier minitrough (Nima Technology Ltd, UK; Working surface area 15 cm^2−80 cm^2). Purified preparations of wax esters in chloroform (1 mg/mL), meibomian lipids in chloroform (1 mg/mL), and compounds of formula (I) in chloroform (ranging from 1.4 μmol to 0.1 μmol) alone or mixed with human meibum at different ratios, were spread on the surface (air-buffer interface) of the buffer subphase. Dynamic Π-A profiles of films at the air-buffer interface of the Langmuir trough were collected using software supplied by NIMA Technology. Surface pressure was monitored using a paper plate connected to a Wilhelmy balance. Compression and expansion cycles were conducted over an area (A) of 79 cm^2−16 cm^2 at a barrier rate of 15 cm^2/min and at a temperature of 20° C. and 34° C.
Adding a small amount of a compound of formula (I) causes fast stabilisation of the film (indicated on the pressure/time curve with the mixture having little change between isocycles) and the maximum surface pressures are much higher.

[2] = Π-A measurements of meibomian lipids from a patient with dry eye disease mixed with a compound of formula (I) (Example 5, FIG. 3); type: physicochemical, human; settings: dry eye patient meibomian lipids with 3 μL compound
Description: as §2

[3] = Π-A isocycles of equimolar pure lipid films on artificial tear buffer, Langmuir trough (Example 6, FIG. 4); type: physicochemical; settings: for surface activity of pure film: 7.5 nmol film; for surface activity of pure film / change of Π-A profile / take-off through repeated isocycles / change of maximum surface pressure (Πmax) with increasing isocycles: 35° C.; for change of Π-A profile / take-off through repeated isocycles / change of maximum surface pressure (Πmax) with increasing isocycles: 7.5 nmol pure film; for surface area per molecule on take-off: pure film, estimated
Description: (§3) Freshly synthesised (O-oleoyl)-ω-hydroxypalmitic acid (an example of a compound of formula (I)) was spread either alone or mixed with human meibum on a Langmuir trough on an artificial tear buffer. Pressure-area isocycle profiles were recorded and compared with those of palmityl oleate and oleic acid, alone or mixed with meibum. These measurements were accompanied by fluorescence microscopy of meibum mixed films during pressure-area isocycles.
The surface characteristics of (O-oleoyl)-ω-hydroxypalmitic acid were compared with palmityl oleate (a structurally similar wax ester) and oleic acid (which is equivalent to the fatty acid (amphiphilic) component of (O-oleoyl)-ω-hydroxypalmitic acid).
Films were formed by spreading 7.5 nmol of the lipids dissolved in chloroform onto the cleaned surface (air-buffer interface) of an artificial tear buffer (NaCl: 6.63 g/L, KCl: 1.72 g/L, NaHCO3: 1.38 g/L, CaCl2.2H2O: 0.15 g/L, NaH2PO4×H2O: 0.10 g/L and MOPS: 4.18 g/L dissolved in ion exchange ultrapure water) in a double barrier 80 mL temperature-controlled (35° C.) Langmuir trough (Nima Technology Ltd, UK). After 5 isocycles were obtained, the temperature was lowered to 20° C. A Whilhelmy balance (Whatman No. 1 filter paper) was used to record surface pressure during isocycles (79 cm^2-16 cm^2 at 10 cm^2/min).

[4] = Surface pressure-area (Π-A) measurements of pure lipid films on a Langmuir-Blodgett minitrough (Example 5, FIG. 1); type: physicochemical; settings: pure film at air-buffer interface, 20° C. and 34° C.
Description: as §1, §2
This is indicated by the take-off moving to the left of the x-axis (indicating collapse), whereas the take-off for the compounds of formula (I) remains constant.

[5] = Π-A isocycles of human meibum films mixed with model lipids (Example 6, FIG. 5); type: physicochemical; settings: for change of Πmax in subsequent isocycles: meibum 20 μg mixed with lipid, 20° C.; for Πmax in the first isocycle versus meibomian lipid films alone: meibum 20 μg mixed with −10 mol % lipid, spread at 20° C.
Description: as §3
Collection of meibomian lipids was in accordance with the Tenets of Helsinki. Human meibomian lipids were gently squeezed out of the meibomian glands of a single subject's lower eyelids by applying pressure to the eyelids using sterile cotton swabs on either side of the lid. Multiple collections were carried out and pooled to provide consistency in the experiments. The subject was devoid of any external signs or symptoms of ocular pathology including dry eye disease. The expressed lipids were harvested using a sterile stainless steel spatula and dissolved in chloroform. The meibomian lipids were dried through vacuum concentration and centrifugation, and then reconstituted in chloroform spiked with 0.5% (w/w) of the fluorophore, 1-palmitoyl-2-[12-[(7-nitro-2-1,3-benzoxadiazol-4-yl)amino]dodecanoyl]-sn-glycero-3-phosphatidylcholine] (NBD-DPPC) (Avanti Polar Lipids, Auspep Pty. Ltd (Tullamarine, Australia)) and stored at −20° C. until used.
The results were compared with mixtures with meibomian lipids. Human meibum (20 μg) was mixed with −10 mol % (O-oleoyl)-ω-hydroxypalmitic acid (2 μg) or with palmityl oleate (1.9 μg) or oleic acid (1.1 μg). These mixtures were spread at 20° C. and 5 isocycles carried out. The film was then heated to 35° C. for another 5 isocycles. The Π-A curves were compared with those for pure meibomian lipid films. In some cases, meibomian lipids doped with 0.5% (w/w) NBD-DPPC were used in order to view the films microscopically.
In general, meibomian films were very tolerant to the changes in their composition, indicated by the fact that the shapes of the different Π-A curves of mixed films were similar to those obtained from films of pure meibomian lipids (FIG. 5). […] Meibum containing fluorophore was spread on artificial tear buffer alone or pre-mixed with each of (O-oleoyl)-ω-hydroxypalmitic acid, palmityl oleate, or oleic acid were spread at 20° C. on the trough. After five isocycles, the trough was heated to 35° C. and five more isocycles were carried out. Then the trough was cooled back to 20° C. and again five more isocycles were run.

[6] = Fluorescence microscopy of meibum mixed films during pressure-area isocycles (Example 6, FIG. 6); type: physicochemical, human; settings: NBD-DPPC doped meibum, 20° C.
Description: as §3
Collection of meibomian lipids was in accordance with the Tenets of Helsinki. Human meibomian lipids were gently squeezed out of the meibomian glands of a single subject's lower eyelids by applying pressure to the eyelids using sterile cotton swabs on either side of the lid. Multiple collections were carried out and pooled to provide consistency in the experiments. The subject was devoid of any external signs or symptoms of ocular pathology including dry eye disease. […]
Micrographs comparing the appearance of pure meibomian lipid films (Row A) with meibomian lipids mixed with the (O-oleoyl)-ω-hydroxypalmitic acid (Row B), palmityl oleate (Row C) or oleic acid (Row D) at 20° C. […] Although not quantitatively verified, the darker patches appeared to be more prevalent in the mixed films of palmityl oleate and oleic acid than for pure meibomian lipid films.

[7] = meibomian lipids (20 μL) mixed with 3-5 μL compound, FIG. 2

Structure (SMILES): CCCCCCCC/C=C\CCCCCCCC(=O)OCCCCCCCCCC(=O)O [(O-oleoyl)-10-hydroxycaprinic acid, (O)-oleoyl-10-hydroxydecanoic acid]
- stabilisation of meibomian lipid film [1, 7]: stabilise the films

Structure (SMILES): CCCCCCCC/C=C\CCCCCCCC(=O)OCCCCCCCCCCCCCCCC(=O)O [(O-oleoyl)-16-hydroxypalmitic acid]
- hysteresis of pressure/area curve [2]: increase in hysteresis
- surface pressure of film [2]: increases the surface pressure
- surface activity of pure film ([3]; listed as (O-oleoyl)-w-hydroxypalmitic acid): as surface active as oleic acid films
- surface activity of pure film ([3]; listed as (O-oleoyl)-ω-hydroxypalmitic acid): very surface active; also recorded: much more surface active
- change of Π-A profile / take-off through repeated isocycles ([3]; FIG. 4): little change in its profile
- surface area covered by pure film ([3]; compared with palmityl oleate or oleic acid): much larger surface area than either palmityl oleate or oleic acid
- surface area per molecule on take-off [3]: 131 Å^2 per molecule
- film collapse during compression/expansion cycles (take-off position) [4]: do not collapse
- stabilisation of meibomian lipid film [1, 7]: stabilise the films
- change of Πmax in subsequent isocycles [5]: small increase
- Πmax in the first isocycle versus meibomian lipid films alone [5]: higher

Structure (SMILES): CCCCCCCC/C=C\CCCCCCCC(=O)O [oleic acid, reference compound]
- change of maximum surface pressure (Πmax) with increasing isocycles ([3]; FIG. 4): decreases
- change of Π-A profile / take-off through repeated isocycles ([3]; FIG. 4): decreases in take-off
- microscopic appearance of meibomian film mixed with lipid [6]: did not appear substantially different from pure meibomian lipid films
- change of Πmax in subsequent isocycles [5]: decreased
- Πmax in the first isocycle versus meibomian lipid films alone [5]: higher

Now from value to molecule, other results behind:

- film collapse during compression/expansion cycles (take-off position) [4]: do not collapse
- stabilisation of meibomian lipid film [1]: stabilise the films
Structure (SMILES): CCCCCCCCCCCCCCCCCC(=O)OCCCCCCCCCCCCCCCC(=O)O [(O-stearyl)-16-hydroxypalmitic acid, (O)-stearyl-16-hydroxypalmitic acid]

- change of maximum surface pressure (Πmax) with increasing isocycles ([3]; FIG. 4): increase in maximum surface pressure
- change of Π-A profile / take-off through repeated isocycles ([3]; FIG. 4): slow shift in the Π-A curve to the left
- area per molecule at flattening of the Π-A curve ([3]; assuming the film is a monolayer up to this point, FIG. 4): about 60 Å^2
- surface area per molecule on take-off [3]: 82 Å^2 per molecule
- film collapse during compression/expansion cycles (take-off position) [4]: collapse
- change of Πmax in subsequent isocycles [5]: marked increase
- Πmax in the first isocycle versus meibomian lipid films alone [5]: did not influence
Structure (SMILES): CCCCCCCC/C=C\CCCCCCCC(=O)OCCCCCCCCCCCCCCCC [palmityl oleate, reference compound]
- microscopic appearance of meibomian film mixed with lipid [6]: did not appear substantially different from pure meibomian lipid films

- film collapse during compression/expansion cycles (take-off position) [4]: collapse
Structure (SMILES): CCCCCCCCCCCCCCCCCC(=O)OCCCCCCCCCCCCCCCC [palmityl stearate wax ester, palmityl stearate]

- film collapse during compression/expansion cycles (take-off position) [4]: collapse
Structure (SMILES): CC/C=C\C/C=C\C/C=C\CCCCCCCC(=O)OCCCCCCCCCCCCCCCCCC [steroyl linolenate wax ester, steroyl linolenate]

Reference: patent US10385003B2, “Ophthalmic formulation” (priority 2011, dated 2019)
